The text below walks through data of ChEMBL document CHEMBL3632539, “Identification of Bidentate Salicylic Acid Inhibitors of PTP1B” (ACS Med Chem Lett, 2015).

The source made the active and inactive calls. No cut-off for these calls is given here. Where only a bound is given, the exact number is not on record here.

Series [1] has as its target T1, Receptor-type tyrosine-protein phosphatase C (Homo sapiens) (UniProt P08575).
T1 sequence (whole entry): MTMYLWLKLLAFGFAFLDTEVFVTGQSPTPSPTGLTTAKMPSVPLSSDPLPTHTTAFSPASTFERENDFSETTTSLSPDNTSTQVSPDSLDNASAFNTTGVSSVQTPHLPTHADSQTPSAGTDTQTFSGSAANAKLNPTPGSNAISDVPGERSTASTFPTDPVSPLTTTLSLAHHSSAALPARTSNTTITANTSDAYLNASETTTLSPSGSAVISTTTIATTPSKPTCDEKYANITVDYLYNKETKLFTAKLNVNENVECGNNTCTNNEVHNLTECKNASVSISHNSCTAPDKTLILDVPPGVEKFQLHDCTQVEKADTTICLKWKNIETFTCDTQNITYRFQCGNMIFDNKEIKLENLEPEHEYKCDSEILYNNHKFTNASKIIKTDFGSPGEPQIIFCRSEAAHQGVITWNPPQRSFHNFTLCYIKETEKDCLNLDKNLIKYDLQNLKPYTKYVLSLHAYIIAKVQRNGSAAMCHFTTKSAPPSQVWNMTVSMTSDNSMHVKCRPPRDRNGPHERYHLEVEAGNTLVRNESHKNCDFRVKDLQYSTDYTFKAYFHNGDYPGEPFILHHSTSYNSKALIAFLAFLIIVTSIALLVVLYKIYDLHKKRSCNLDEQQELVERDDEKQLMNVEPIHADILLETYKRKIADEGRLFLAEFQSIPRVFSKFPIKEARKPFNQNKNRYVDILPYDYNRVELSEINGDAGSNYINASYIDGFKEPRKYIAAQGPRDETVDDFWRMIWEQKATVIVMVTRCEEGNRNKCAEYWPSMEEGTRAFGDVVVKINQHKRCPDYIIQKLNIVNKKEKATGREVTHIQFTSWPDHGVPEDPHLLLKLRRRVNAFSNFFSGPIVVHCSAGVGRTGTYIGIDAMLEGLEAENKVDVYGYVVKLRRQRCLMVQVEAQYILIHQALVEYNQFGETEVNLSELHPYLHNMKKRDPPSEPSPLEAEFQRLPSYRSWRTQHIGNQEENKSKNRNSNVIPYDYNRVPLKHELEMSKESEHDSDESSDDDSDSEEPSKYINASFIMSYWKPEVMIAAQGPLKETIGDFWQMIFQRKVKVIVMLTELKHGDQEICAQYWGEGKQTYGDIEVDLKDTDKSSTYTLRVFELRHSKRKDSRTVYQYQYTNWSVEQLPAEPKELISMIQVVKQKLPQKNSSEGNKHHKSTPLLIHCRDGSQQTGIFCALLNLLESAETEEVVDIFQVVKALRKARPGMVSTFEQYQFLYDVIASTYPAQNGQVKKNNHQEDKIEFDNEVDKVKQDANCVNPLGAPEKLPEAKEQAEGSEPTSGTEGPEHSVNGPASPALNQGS
The series is described as follows: Inhibition of GST-tagged CD45 D1D2 domain (unknown origin) at 10 uM by plate reader analysis using DiFMUP as substrate.

The subject of series [2] is CHO. The series is described as follows: Cytotoxicity against CHO cells expressing human insulin receptor at 0.78 to 50 uM after 72 hrs by cell-titer blue assay. It counts as cell-based, Cricetulus griseus. The settings on record: chinese hamster.
Series [3] deals with T2, Receptor-type tyrosine-protein phosphatase S (Homo sapiens, UniProt Q13332). The series can be described thus: Inhibition of GST-tagged PTP-sigma (unknown origin) at 10 uM by plate reader analysis using DiFMUP as substrate.
T2 sequence (Q13332 whole entry): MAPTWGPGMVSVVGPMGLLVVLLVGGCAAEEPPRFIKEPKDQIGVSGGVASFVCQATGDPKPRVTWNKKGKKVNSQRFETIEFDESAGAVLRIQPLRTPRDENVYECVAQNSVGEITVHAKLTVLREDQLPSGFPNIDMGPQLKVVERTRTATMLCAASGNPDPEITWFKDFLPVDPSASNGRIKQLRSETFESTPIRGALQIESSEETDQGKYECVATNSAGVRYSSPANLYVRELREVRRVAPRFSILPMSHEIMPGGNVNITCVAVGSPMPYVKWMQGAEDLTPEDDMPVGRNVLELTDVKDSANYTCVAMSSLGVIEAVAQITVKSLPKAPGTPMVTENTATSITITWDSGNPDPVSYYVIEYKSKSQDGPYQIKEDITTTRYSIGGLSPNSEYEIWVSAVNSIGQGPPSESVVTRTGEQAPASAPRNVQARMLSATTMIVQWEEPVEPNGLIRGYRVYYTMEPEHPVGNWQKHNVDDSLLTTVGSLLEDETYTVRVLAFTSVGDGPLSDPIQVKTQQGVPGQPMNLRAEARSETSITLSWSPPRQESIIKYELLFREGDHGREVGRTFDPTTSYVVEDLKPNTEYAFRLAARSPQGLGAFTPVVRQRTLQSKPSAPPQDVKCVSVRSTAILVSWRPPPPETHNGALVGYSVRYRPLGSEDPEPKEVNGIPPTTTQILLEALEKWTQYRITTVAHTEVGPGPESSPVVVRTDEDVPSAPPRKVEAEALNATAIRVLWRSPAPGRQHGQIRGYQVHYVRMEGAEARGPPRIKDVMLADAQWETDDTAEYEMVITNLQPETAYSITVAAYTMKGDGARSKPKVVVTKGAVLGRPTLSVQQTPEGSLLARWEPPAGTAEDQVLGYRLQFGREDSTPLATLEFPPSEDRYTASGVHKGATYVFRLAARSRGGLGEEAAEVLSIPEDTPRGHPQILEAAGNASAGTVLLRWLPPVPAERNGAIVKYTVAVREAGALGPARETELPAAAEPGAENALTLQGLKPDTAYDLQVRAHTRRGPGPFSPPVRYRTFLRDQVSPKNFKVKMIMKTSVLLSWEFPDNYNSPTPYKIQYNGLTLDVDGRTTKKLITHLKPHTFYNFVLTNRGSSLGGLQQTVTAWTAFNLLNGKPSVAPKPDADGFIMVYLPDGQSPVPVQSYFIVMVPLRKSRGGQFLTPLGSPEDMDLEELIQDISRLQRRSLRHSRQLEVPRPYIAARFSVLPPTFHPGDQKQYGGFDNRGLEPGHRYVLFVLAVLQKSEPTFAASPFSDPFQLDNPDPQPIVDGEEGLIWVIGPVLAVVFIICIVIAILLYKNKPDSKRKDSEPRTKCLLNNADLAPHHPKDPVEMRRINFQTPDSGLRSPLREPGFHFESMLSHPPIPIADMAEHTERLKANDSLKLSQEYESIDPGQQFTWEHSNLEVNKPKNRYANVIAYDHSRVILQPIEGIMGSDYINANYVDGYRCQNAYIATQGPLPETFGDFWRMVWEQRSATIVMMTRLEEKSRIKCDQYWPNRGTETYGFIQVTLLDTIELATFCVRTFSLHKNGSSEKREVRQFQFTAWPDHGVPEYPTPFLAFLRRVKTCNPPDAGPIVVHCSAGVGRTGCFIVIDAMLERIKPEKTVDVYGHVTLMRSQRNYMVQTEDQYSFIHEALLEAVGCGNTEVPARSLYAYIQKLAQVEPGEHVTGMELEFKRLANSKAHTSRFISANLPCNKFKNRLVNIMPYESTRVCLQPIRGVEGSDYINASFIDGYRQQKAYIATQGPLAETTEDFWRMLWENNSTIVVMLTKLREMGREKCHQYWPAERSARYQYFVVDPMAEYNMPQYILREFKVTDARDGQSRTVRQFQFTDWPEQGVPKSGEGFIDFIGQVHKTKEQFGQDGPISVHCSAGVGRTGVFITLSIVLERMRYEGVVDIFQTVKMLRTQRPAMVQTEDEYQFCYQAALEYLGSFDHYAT
The species named for series [4] is Homo sapiens. The series can be described thus: Inhibition of GST-tagged PRL2 A/S mutant (unknown origin) at 10 uM by plate reader analysis using DiFMUP as substrate.
For series [5], the target named is T3, Tyrosine-protein phosphatase non-receptor type 2 (Homo sapiens) (UniProt P17706).
T3 sequence (whole entry): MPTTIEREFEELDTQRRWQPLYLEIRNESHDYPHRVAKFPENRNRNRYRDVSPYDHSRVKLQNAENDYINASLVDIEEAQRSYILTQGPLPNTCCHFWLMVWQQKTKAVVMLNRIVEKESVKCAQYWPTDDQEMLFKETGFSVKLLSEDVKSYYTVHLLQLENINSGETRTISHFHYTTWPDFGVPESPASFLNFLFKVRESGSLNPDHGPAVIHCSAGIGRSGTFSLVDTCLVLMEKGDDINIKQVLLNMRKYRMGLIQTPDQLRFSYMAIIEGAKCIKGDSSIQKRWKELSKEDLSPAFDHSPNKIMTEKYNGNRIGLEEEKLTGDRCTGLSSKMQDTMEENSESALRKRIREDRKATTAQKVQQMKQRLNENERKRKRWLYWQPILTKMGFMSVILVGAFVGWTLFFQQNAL
The series is described as follows: Inhibition of GST-tagged TCPTP (unknown origin) at 10 uM by plate reader analysis using DiFMUP as substrate.

Series [6] deals with Receptor-type tyrosine-protein phosphatase F (Homo sapiens) (UniProt P10586). The series can be described thus: Inhibition of GST-tagged LAR (unknown origin) at 10 uM by plate reader analysis using DiFMUP as substrate.
Receptor-type tyrosine-protein phosphatase F (Homo sapiens), sequence (P10586 whole entry): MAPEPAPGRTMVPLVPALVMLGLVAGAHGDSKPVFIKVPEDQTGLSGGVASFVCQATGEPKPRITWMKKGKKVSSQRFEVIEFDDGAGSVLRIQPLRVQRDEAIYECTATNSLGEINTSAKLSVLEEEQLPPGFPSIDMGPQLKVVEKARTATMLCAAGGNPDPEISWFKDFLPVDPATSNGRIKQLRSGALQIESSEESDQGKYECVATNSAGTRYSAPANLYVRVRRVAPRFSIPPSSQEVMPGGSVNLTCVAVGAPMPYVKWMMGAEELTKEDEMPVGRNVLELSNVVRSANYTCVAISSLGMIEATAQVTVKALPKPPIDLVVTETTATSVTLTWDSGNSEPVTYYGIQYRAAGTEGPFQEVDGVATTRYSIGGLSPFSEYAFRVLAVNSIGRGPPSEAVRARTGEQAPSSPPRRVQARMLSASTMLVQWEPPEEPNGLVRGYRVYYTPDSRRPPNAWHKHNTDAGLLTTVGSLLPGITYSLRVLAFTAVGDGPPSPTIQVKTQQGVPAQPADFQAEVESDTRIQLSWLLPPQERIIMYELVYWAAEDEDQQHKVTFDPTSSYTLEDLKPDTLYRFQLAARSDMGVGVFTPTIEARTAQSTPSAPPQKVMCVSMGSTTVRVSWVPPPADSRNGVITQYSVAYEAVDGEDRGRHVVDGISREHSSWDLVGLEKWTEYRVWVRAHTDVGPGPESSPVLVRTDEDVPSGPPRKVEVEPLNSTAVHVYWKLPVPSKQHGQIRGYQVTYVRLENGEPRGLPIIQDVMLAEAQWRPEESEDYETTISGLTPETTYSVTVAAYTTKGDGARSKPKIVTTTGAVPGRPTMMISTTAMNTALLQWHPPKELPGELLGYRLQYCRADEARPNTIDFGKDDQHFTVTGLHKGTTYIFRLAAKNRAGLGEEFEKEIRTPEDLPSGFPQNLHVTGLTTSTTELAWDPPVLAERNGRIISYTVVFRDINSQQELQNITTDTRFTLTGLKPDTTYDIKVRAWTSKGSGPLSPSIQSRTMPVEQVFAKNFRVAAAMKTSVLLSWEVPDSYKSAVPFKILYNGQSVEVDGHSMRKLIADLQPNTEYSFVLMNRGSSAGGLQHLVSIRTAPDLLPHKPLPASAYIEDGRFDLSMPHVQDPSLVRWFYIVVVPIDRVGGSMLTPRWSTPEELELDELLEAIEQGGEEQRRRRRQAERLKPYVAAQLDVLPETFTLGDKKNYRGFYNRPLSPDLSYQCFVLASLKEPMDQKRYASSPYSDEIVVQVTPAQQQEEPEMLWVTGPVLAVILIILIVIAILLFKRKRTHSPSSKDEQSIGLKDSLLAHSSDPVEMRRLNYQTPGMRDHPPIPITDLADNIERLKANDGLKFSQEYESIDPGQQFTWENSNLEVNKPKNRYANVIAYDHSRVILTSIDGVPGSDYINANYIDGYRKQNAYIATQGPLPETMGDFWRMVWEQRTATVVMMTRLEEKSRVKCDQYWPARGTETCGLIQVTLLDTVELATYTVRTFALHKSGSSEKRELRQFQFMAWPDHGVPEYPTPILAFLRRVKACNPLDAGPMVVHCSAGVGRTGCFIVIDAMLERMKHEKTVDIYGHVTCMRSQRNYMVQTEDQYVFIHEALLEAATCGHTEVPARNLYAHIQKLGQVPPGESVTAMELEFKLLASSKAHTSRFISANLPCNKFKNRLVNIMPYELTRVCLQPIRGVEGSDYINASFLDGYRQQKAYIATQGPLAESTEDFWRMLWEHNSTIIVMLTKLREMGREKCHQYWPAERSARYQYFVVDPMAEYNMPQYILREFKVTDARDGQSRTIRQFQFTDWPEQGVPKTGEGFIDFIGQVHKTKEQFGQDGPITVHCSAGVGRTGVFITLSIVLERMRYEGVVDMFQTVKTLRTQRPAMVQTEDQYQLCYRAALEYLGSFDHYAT
For series [7], the target named is T4, Dual specificity protein phosphatase 22 (Homo sapiens) (UniProt Q9NRW4).
T4 sequence (whole entry): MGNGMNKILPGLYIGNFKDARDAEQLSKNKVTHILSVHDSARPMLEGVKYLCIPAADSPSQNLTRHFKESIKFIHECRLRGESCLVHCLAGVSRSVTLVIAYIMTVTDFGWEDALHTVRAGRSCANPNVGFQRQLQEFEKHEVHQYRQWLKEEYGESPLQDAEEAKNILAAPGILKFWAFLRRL
The series is described as follows: Inhibition of GST-tagged MKPX (unknown origin) at 10 uM by plate reader analysis using DiFMUP as substrate.

Series [8] has as its target T2, Receptor-type tyrosine-protein phosphatase S. The series is described as follows: Inhibition of GST-tagged PTP-sigma (unknown origin) by plate reader analysis using DiFMUP as substrate.
The target of series [9] is T5, Tyrosine-protein phosphatase non-receptor type 1 (Homo sapiens, UniProt P18031).
T5 sequence (P18031 whole entry): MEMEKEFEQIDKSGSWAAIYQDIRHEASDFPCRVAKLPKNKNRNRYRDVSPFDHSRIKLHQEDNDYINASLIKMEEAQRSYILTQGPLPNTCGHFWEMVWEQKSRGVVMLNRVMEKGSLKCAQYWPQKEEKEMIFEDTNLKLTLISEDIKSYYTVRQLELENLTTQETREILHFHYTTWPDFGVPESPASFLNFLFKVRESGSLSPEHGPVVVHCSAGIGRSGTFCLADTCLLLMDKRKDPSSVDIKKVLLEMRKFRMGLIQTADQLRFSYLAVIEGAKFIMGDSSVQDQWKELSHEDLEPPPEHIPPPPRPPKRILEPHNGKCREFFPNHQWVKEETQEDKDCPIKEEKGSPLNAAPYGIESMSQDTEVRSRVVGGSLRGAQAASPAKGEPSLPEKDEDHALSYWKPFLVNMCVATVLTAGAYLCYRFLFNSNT
The series can be described thus: Inhibition of GST-tagged PTP1B (unknown origin) by plate reader analysis using DiFMUP as substrate.

Series [10] has as its target T5, Tyrosine-protein phosphatase non-receptor type 1. The series can be described thus: Competitive inhibition of GST-tagged PTP1B (unknown origin) by plate reader analysis using DiFMUP as substrate.
Series [11] deals with T6, Tyrosine-protein phosphatase non-receptor type 1 (Homo sapiens) (UniProt P18031).
T6 sequence (whole entry): T5 sequence (P18031 whole entry)
The series is described as follows: Inhibition of GST-tagged PTP1B (unknown origin) at 10 uM by plate reader analysis using DiFMUP as substrate.

The test system of series [12] is CHO. The series can be described thus: Inhibition of PTP1B in CHO cells assessed as increase in phosphorylation of transfected human insulin receptor by western blot analysis. The settings on record: Cricetulus griseus. Format: cell-based.
In series [13] the test system is CHO. The series can be described thus: Inhibition of PTP1B in CHO cells assessed as increase in phosphorylation of transfected human insulin receptor at 50 uM by western blot analysis. Format: cell-based. The settings on record: Cricetulus griseus. (Immunoblotting shows a protein as a band on a membrane.)
For series [14], the species on record is Homo sapiens. The series can be described thus: Selectivity ratio, ratio of IC50 for PTP1B (unknown origin) to IC50 for PTP sigma (unknown origin).
Series [15] has as its target T7, Papain (Carica papaya) (UniProt P00784).
T7 sequence (whole entry): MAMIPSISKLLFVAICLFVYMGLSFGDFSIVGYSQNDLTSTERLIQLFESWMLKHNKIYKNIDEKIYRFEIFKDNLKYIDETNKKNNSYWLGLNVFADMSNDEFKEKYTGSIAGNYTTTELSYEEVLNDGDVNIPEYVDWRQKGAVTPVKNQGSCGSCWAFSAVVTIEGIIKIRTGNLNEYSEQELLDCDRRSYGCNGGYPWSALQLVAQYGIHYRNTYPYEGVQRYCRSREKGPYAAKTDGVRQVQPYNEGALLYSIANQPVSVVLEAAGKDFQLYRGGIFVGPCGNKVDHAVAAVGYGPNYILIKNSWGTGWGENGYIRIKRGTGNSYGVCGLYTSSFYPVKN
The series can be described thus: Inhibition of papaya papain by plate reader analysis using Z-Phe-Arg-pNA substrate.

Series [16] has as its target T4, Dual specificity protein phosphatase 22 (Homo sapiens). The series can be described thus: Inhibition of GST-tagged MKPX (unknown origin) by plate reader analysis using DiFMUP as substrate.
Series [17] is filed under the species Homo sapiens. The series can be described thus: Inhibition of GST-tagged PRL2 A/S mutant (unknown origin) by plate reader analysis using DiFMUP as substrate.
Series [18] addresses Receptor-type tyrosine-protein phosphatase F (Homo sapiens) (UniProt P10586). The series can be described thus: Inhibition of GST-tagged LAR (unknown origin) by plate reader analysis using DiFMUP as substrate.
Series [19] is filed under the species Homo sapiens. The series is described as follows: Selectivity ratio, ratio of IC50 for PTP sigma (unknown origin) to IC50 for PTP1B (unknown origin).

As to `O=C(Cn1cc(CN(CC(=O)N(Cc2ccc(C3CCCCC3)cc2)c2ccc(C(=O)O)c(O)c2)S(=O)(=O)c2cccc3cccnc23)nn1)Nc1ccc(C(=O)O)c(O)c1`, the inhibition entry in series [1], in series [4], in series [6] and in series [7] was “inactive” in each case. In addition, the Activity entry is “Non-toxic” in series [2] and “Dose-dependent effect” in series [12]. The inhibition in series [3], in series [5] and in series [11] was more than 90% in each case. For the same molecule, the figures for the IC50 in series [8] and in series [9] were 15.6 µM and 3.6 µM, respectively. Also, the Ki (as a rule, the equilibrium dissociation constant of an inhibitor or competing ligand from its target) in [10] is 1.83 µM.
For VANADATE, the result in series [13] was Active.
With `O=C(CCCCn1cc(CN(CC(=O)N(Cc2ccc(C3CCCCC3)cc2)c2ccc(C(=O)O)c(O)c2)S(=O)(=O)c2cccc3cccnc23)nn1)Nc1ccc(C(=O)O)c(O)c1`, the inhibition result in series [1], in [4], in [6] and in series [7] was “inactive” each time. The inhibition in series [3], in [5] and in [11] was more than 90% each time. The Ratio IC50 in series [14] came to 4. Further, the results for the IC50 in series [8] and in series [9] were 0.6 µM and 2.3 µM, respectively.
For the molecule `CN(CC(=O)N(Cc1ccc(C2CCCCC2)cc1)c1ccc(C(=O)O)c(O)c1)S(=O)(=O)c1cccc2cccnc12`, the inhibition entry in series [15], in [16], in series [17] and in [18] was “inactive” in each case. The molecule further had a Ki in series [10] of 5.66 µM.
With `O=C(CCCCCn1cc(CN(CC(=O)N(Cc2ccc(C3CCCCC3)cc2)c2ccc(C(=O)O)c(O)c2)S(=O)(=O)c2cccc3cccnc23)nn1)Nc1ccc(C(=O)O)c(O)c1`, the inhibition entry in [1], in series [4], in [6] and in series [7] was “inactive” in each case. In addition, the Activity entry in [2] is “Non-toxic”; in [12], “Dose-dependent effect”. Besides, the inhibition in series [3], in series [5] and in series [11] was more than 90% each time. Moreover, the results for the concentration for half-maximal inhibition (IC50) in [8] and in series [9] were 0.9 µM and 2.4 µM, respectively.
Take `O=C(CCn1cc(CN(CC(=O)N(Cc2ccc(C3CCCCC3)cc2)c2ccc(C(=O)O)c(O)c2)S(=O)(=O)c2cccc3cccnc23)nn1)Nc1ccc(C(=O)O)c(O)c1`: the inhibition result in [1], in series [4], in [6] and in series [7] was “inactive” throughout. The inhibition in [3], in series [5] and in series [11] was more than 90% throughout. Also, the IC50 (usually the concentration needed to halve the response being measured) in series [8] is 11.8 µM; in series [9], 6.1 µM.
For `O=C(CCCn1cc(CN(CC(=O)N(Cc2ccc(C3CCCCC3)cc2)c2ccc(C(=O)O)c(O)c2)S(=O)(=O)c2cccc3cccnc23)nn1)Nc1ccc(C(=O)O)c(O)c1`, the inhibition result in [1], in [4], in [6] and in series [7] was “inactive” each time. Moreover, the Activity entry in [2] is “Non-toxic”; in [12], “Dose-dependent effect”. Also, the inhibition in series [3], in series [5] and in series [11] was more than 90% each time. Moreover, the IC50 in [8] was found to be 7.9 µM; in [9] it was 1.7 µM. In series [19], the Ratio IC50 was determined as 4.
